Test results from the NIST ThermoML archive (doi:10.1016/j.jct.2016.09.014).
± gives the expanded uncertainty stated by the source.

Experiment: mn = molality of the nth substance listed, in mol/kg
Conditions: 298.15 K, 101.3 kPa, Liquid; for binary diffusion coefficient: Taylor dispersion method; for mass density: Vibrating tube method

For `NCCCC(=O)O` [4-aminobutanoic acid] + O, the binary diffusion coefficient (m1 = 0.001003) was 7.8e-10 m2/s, the binary diffusion coefficient (m1 = 0.005016) was 7.79e-10 m2/s and the binary diffusion coefficient (m1 = 0.01004) was 7.78e-10 m2/s. The binary diffusion coefficient (m1 = 0.02009) was 7.77e-10 m2/s, the binary diffusion coefficient (m1 = 0.03015) was 7.76e-10 m2/s and the binary diffusion coefficient (m1 = 0.05033) was 7.72e-10 m2/s. The binary diffusion coefficient (m1 = 0.101) was 7.65e-10 m2/s, the mass density (m1 = 0.00106) was 997.083 ± 0.31 kg/m3 and the mass density (m1 = 0.00258) was 997.127 ± 0.31 kg/m3. The mass density (m1 = 0.00467) was 997.199 ± 0.31 kg/m3, the mass density (m1 = 0.00517) was 997.203 ± 0.31 kg/m3 and the mass density (m1 = 0.00833) was 997.308 ± 0.31 kg/m3. It also gave a mass density (m1 = 0.01088) of 997.389 ± 0.31 kg/m3, a mass density (m1 = 0.01968) of 997.658 ± 0.31 kg/m3 and a mass density (m1 = 0.03823) of 998.069 ± 0.31 kg/m3. The mass density (m1 = 0.05427) was 998.687 ± 0.31 kg/m3, the mass density (m1 = 0.06297) was 998.944 ± 0.31 kg/m3 and the mass density (m1 = 0.07297) was 999.113 ± 0.31 kg/m3. For the same compound, the mass density (m1 = 0.1017) was 1000.1 ± 0.31 kg/m3.
